Assay results reported in US20240285548A1, “AGENT FOR PREVENTION AND/OR TREATMENT OF COGNITIVE IMPAIRMENT” (NATIONAL CEREBRAL AND CARDIOVASCULAR CENTER, priority 2022, published 2024).

What was measured:
[1] = test system: patients with asymptomatic moderate or severe carotid artery stenosis/occlusion; assay: Alzheimer's Disease Assessment Scale-Cognitive subscale 13 (ADAS-Cog), change during observation period; type: in vivo, human; settings: for β, resveratrol intake vs ADAS-Cog delayed recall change / β, resveratrol intake vs ADAS-Cog memory domain change / β, resveratrol intake vs ADAS-Cog total change: 79 patients, linear regression
Procedure: (§1) Subjects were patients with asymptomatic moderate or severe carotid artery stenosis/occlusion who visited the National Cerebral and Cardiovascular Center in Japan from July 2020 to August 2021 and who were taking or not taking trans-resveratrol in an amount of 30 mg/day. The inclusion criteria were as follows: (1) patients with asymptomatic moderate or severe carotid artery stenosis/occlusion who presented with a peak systolic velocity of 130 cm/s or more at a stenotic lesion on carotid ultrasonography (corresponding to a stenotic diameter of >50%) and who underwent test (2) and/or (3); (2) patients who underwent cognitive function tests (Alzheimer's Disease Assessment Scale-Cognitive subscale 13 (ADAS-Cog) and Montreal Cognitive Assessment (MoCA)) longitudinally twice; (3) patients who also underwent ^15O-gas positron emission tomography (PET) longitudinally twice in a similar manner. The primary outcome is a comparison of the amounts of change in ADAS-Cog during the observation period (differential analysis). The secondary outcomes are (1) a comparison of the amounts of change in MoCA during the observation period (differential analysis), and (2) a comparison of the amounts of change in cerebral blood flow on ^15O -gas PET (differential analysis). This study was initiated after receiving approval from the Research Ethics Review Committee of the National Cerebral and Cardiovascular Center (Research Project Number: R20113). In Example 1 above, the 82 subject patients included patients who were tested for both change in cognitive function and change in cerebral blood flow, as well as patients who were tested for only either change in cognitive function or change in cerebral blood flow. Therefore, based on the above results, the same analysis as in Example 1 was performed again on 79 patients who were tested for both change in cognitive function and change in cerebral blood flow from among the 82 patients. […] The baseline mean total MoCA scores were 23.6±3.6 in the non-RES group and 23.7±3.6 in the RES group. Further, the mean total ADAS-Cog scores were 14.6±5.4 in the non-RES group and 15.8±7.2 in the RES group. The mean observation periods were 244.8±86.9 and 221.2±61.9 days, respectively (p=0.18). The baseline scores were under the category of mild cognitive impairment (MCI) (Table 4). For the 79 patients, the amount of change in MoCA and ADAS-Cog scores was examined to investigate changes in cognitive function associated with administration of resveratrol. […] According to ADAS-Cog, a significant association was found with cognitive function improvement in the RES group in terms of delayed recall (0.5±1.6 VS. −0.9±1.8; p=0.001), memory domain (0.4±3.3 VS. −1.6±3.1; p=0.007), and total score (0.5±3.7 vs. −1.5±3.4; p=0.019). Therefore, after adjusting for age, gender, hypertension, diabetes, dyslipidemia, and coronary artery disease, a multivariate linear regression model analysis was performed. Resveratrol intake was an independent predictor of improvement in spatial cognitive and executive functions (β=0.26, 95% confidence interval [CI]: 0.062-1.15, p=0.03) and memory (memory domain: β=−0.26, 95% CI: −3.23 to −0.15, p=0.032; delayed recall: β=−0.37, 95% CI: −2.16 to −0.54, p=0.001) (Table 5). Accordingly, resveratrol may have contributed to improvement in the visuospatial cognitive function, executive function, and memory.

[2] = test system: patients with asymptomatic moderate or severe carotid artery stenosis/occlusion; assay: 15O-gas PET: cerebral blood flow, cerebral oxygen metabolic rate, cerebral oxygen uptake rate; type: in vivo, human; parameters: Cerebral blood flow change: entire right hemisphere / Cerebral blood flow change: entire left hemisphere / Cerebral blood flow change: right frontal lobe / Cerebral blood flow change: right callosomarginal artery area / Cerebral blood flow change: left callosomarginal artery area / Cerebral blood flow change: left lenticular nucleus / Cerebral blood flow change: left thalamus: unit not given here; settings: for β, resveratrol intake vs cerebral blood flow change: Frontal circulation area / β, resveratrol intake vs cerebral blood flow change: Left callosomarginal artery area / β, resveratrol intake vs cerebral blood flow change: Left lenticular nucleus / β, resveratrol intake vs cerebral blood flow change: Right callosomarginal artery area / β, resveratrol intake vs cerebral blood flow change: Right precentral artery / β, resveratrol intake vs cerebral blood flow change: Thalamus, Left / β, resveratrol intake vs cerebral blood flow change: Thalamus, Right: 79 patients, linear regression
Procedure: Subjects were patients with asymptomatic moderate or severe carotid artery stenosis/occlusion who visited the National Cerebral and Cardiovascular Center in Japan from July 2020 to August 2021 and who were taking or not taking trans-resveratrol in an amount of 30 mg/day. The inclusion criteria were as follows: (1) patients with asymptomatic moderate or severe carotid artery stenosis/occlusion who presented with a peak systolic velocity of 130 cm/s or more at a stenotic lesion on carotid ultrasonography (corresponding to a stenotic diameter of >50%) and who underwent test (2) and/or (3); (2) patients who underwent cognitive function tests (Alzheimer's Disease Assessment Scale-Cognitive subscale 13 (ADAS-Cog) and Montreal Cognitive Assessment (MoCA)) longitudinally twice; (3) patients who also underwent ^15O-gas positron emission tomography (PET) longitudinally twice in a similar manner. The primary outcome is a comparison of the amounts of change in ADAS-Cog during the observation period (differential analysis). The secondary outcomes are (1) a comparison of the amounts of change in MoCA during the observation period (differential analysis), and (2) a comparison of the amounts of change in cerebral blood flow on ^15O -gas PET (differential analysis). This study was initiated after receiving approval from the Research Ethics Review Committee of the National Cerebral and Cardiovascular Center (Research Project Number: R20113). All PET images were anatomically standardized using linear and nonlinear transformations with SPM2 to ensure that the brain images of all patients had the same anatomical format, and the cerebral blood flow was quantified using 3DSRT (PDRadiopharma Inc., Tokyo, Japan). Each hemisphere was divided into twelve ROI segments, grouped according to the arterial supply: callosomarginal artery area, pericallosal artery area, precentral artery area, central artery area, angular artery area, parietal lobe, temporal lobe, occipital lobe, hippocampus, lenticular nucleus, thalamus, and cerebellum. The frontal circulation areas were defined to be the callosomarginal artery area, pericallosal artery area, precentral artery area, and central artery area. In quantifying the relative cerebral blood flow, counts under each ROI were normalized to an average cerebral blood flow count within the bilateral cerebellum. […] Using 3D-SRT (FUJIFILM RI Pharma, Tokyo, Japan), the difference in the amount of change was analyzed (for the RES group, the difference between the cerebral blood flow before RES administration (relative to cerebellum) and the cerebral blood flow after RES administration (relative to cerebellum); for the non-RES group, the cerebral blood flow at intervals of 6 months to 1 year (relative to cerebellum)). […] In Example 1 above, the 82 subject patients included patients who were tested for both change in cognitive function and change in cerebral blood flow, as well as patients who were tested for only either change in cognitive function or change in cerebral blood flow. Therefore, based on the above results, the same analysis as in Example 1 was performed again on 79 patients who were tested for both change in cognitive function and change in cerebral blood flow from among the 82 patients. To identify the reason associated with significant improvements in the visuospatial cognitive function, executive function, and memory in the RES group, cerebral blood flow was measured. Initially, the cerebral blood flow change in each entire hemisphere was analyzed. […] To examine the changes in detail, the cerebral blood flow was analyzed in terms of the frontal lobe, basal ganglia, and thalamus, which govern the visuospatial cognitive and executive functions, and memory. Longitudinally, long-term resveratrol intake was associated with a significant increase in cerebral blood flow in the right frontal lobe (non-RES group: 0.001±0.037, RES group: 0.019±0.033; p=0.027)). […]

[3] = test system: carotid artery occlusion model mice; settings: NPL 3; cited from earlier work
[4] = test system: patients with asymptomatic moderate or severe carotid artery stenosis/occlusion; assay: Montreal Cognitive Assessment (MoCA), change during observation period; type: in vivo, human; settings: for β, resveratrol intake vs MoCA visuospatial cognitive function/executive function change: 79 patients, linear regression
Procedure: as §1

[5] = test system: patients with asymptomatic moderate or severe carotid artery stenosis/occlusion; assay: Adverse events during long-term resveratrol intake; type: in vivo, human; settings: Example 2, 30 mg/day
Excerpt: The baseline mean total MoCA scores were 23.6±3.6 in the non-RES group and 23.7±3.6 in the RES group. Further, the mean total ADAS-Cog scores were 14.6±5.4 in the non-RES group and 15.8±7.2 in the RES group. The mean observation periods were 244.8±86.9 and 221.2±61.9 days, respectively (p=0.18). The baseline scores were under the category of mild cognitive impairment (MCI) (Table 4).
To identify the reason associated with significant improvements in the visuospatial cognitive function, executive function, and memory in the RES group, cerebral blood flow was measured. Initially, the cerebral blood flow change in each entire hemisphere was analyzed. […] To examine the changes in detail, the cerebral blood flow was analyzed in terms of the frontal lobe, basal ganglia, and thalamus, which govern the visuospatial cognitive and executive functions, and memory. Longitudinally, long-term resveratrol intake was associated with a significant increase in cerebral blood flow in the right frontal lobe (non-RES group: 0.001±0.037, RES group: 0.019±0.033; p=0.027)). […] Therefore, long-term resveratrol intake may contribute not only to improvement of cognitive function but also to increase in cerebral blood flow.

[6] = test system: human Alzheimer's patients; settings: 500 mg of resveratrol; NPL 5; cited from earlier work
[7] = Example 1, RES group 37 of 82 patients, 30 mg/day
[8] = Example 2, multivariate analysis
[9] = Example 2, RES group n = 36 of 79 patients, 30 mg/day
[10] = Example 1, relative to cerebellum, before vs after RES administration, 30 mg/day
[11] = Example 2, multivariable analysis
[12] = Example 2, univariable analysis

## Oc1ccc(/C=C/c2cc(O)cc(O)c2)cc1 [resveratrol, 3,4′, 5-trihydroxy-trans-stilbene]
[1]; [7]
  Amount of change in ADAS-Cog: Total: −1.48 ± 3.4
  Amount of change in ADAS-Cog: delayed recall: −0.89 ± 1.7
  Amount of change in ADAS-Cog: memory domain: −1.65 ± 3.0
[1]; [8]
  β, resveratrol intake vs ADAS-Cog delayed recall change: −0.37
  β, resveratrol intake vs ADAS-Cog memory domain change: −0.26
  β, resveratrol intake vs ADAS-Cog total change: −0.18
[1]; Example 2, univariate analysis
  β, resveratrol intake vs ADAS-Cog delayed recall change: −0.37
  β, resveratrol intake vs ADAS-Cog memory domain change: −0.30
  β, resveratrol intake vs ADAS-Cog total change: −0.26
[1]; [9]
  Amount of change in ADAS-Cog: delayed recall: −0.9±1.8
  Amount of change in ADAS-Cog: memory domain: −1.6±3.1
  Amount of change in ADAS-Cog: total score: −1.5±3.4
[2]; Example 1, 30 mg/day
  Cerebral oxygen uptake rate: no association
[2]; Example 1, all areas, 30 mg/day
  Cerebral oxygen metabolic rate: tendency for an association between RES intake and an increase in the cerebral oxygen metabolic rate
[2]; Example 1, areas other than those of Table 3, relative to cerebellum
  Cerebral blood flow in other areas: tendency for an association between RES intake and an increase in the cerebral blood flow
[2]; [10]
  Amount of change in cerebral blood flow: Left callosomarginal artery area: 0.171 ± 0.42
  Amount of change in cerebral blood flow: Left putamen: 0.19 ± 0.57
  Amount of change in cerebral blood flow: Left thalamus: 0.449 ± 0.90
  Amount of change in cerebral blood flow: Right callosomarginal artery area: 0.179 ± 0.34
  Amount of change in cerebral blood flow: Right frontal lobe: 0.215 ± 0.35
  Amount of change in cerebral blood flow: Right thalamus: 0.393 ± 0.85
[2]; [11]
  β, resveratrol intake vs cerebral blood flow change: Frontal circulation area: 0.25
  β, resveratrol intake vs cerebral blood flow change: Left callosomarginal artery area: 0.27
  β, resveratrol intake vs cerebral blood flow change: Left lenticular nucleus: 0.31
  β, resveratrol intake vs cerebral blood flow change: Right callosomarginal artery area: 0.29
  β, resveratrol intake vs cerebral blood flow change: Right precentral artery: 0.25
  β, resveratrol intake vs cerebral blood flow change: Thalamus, Left: 0.29
  β, resveratrol intake vs cerebral blood flow change: Thalamus, Right: 0.23
[2]; [12]
  β, resveratrol intake vs cerebral blood flow change: Frontal circulation area: 0.25
  β, resveratrol intake vs cerebral blood flow change: Left callosomarginal artery area: 0.24
  β, resveratrol intake vs cerebral blood flow change: Left lenticular nucleus: 0.29
  β, resveratrol intake vs cerebral blood flow change: Right callosomarginal artery area: 0.28
  β, resveratrol intake vs cerebral blood flow change: Right precentral artery: 0.25
  β, resveratrol intake vs cerebral blood flow change: Thalamus, Left: 0.29
  β, resveratrol intake vs cerebral blood flow change: Thalamus, Right: 0.24
[2]; [9]
  Cerebral blood flow change: entire left hemisphere: 0.014±0.031
  Cerebral blood flow change: entire right hemisphere: 0.016±0.032
  Cerebral blood flow change: left callosomarginal artery area: 0.017±0.042
  Cerebral blood flow change: left lenticular nucleus: 0.033±0.06
  Cerebral blood flow change: left thalamus: 0.045±0.090
  Cerebral blood flow change: right callosomarginal artery area: 0.018±0.034
  Cerebral blood flow change: right frontal lobe: 0.019±0.033
  Cerebral blood flow change: right precentral artery area: 0.021±0.035
  Cerebral blood flow change: right thalamus: 0.039±0.85
[3]
  Autophagy: activation of autophagy
  Cognitive function: improvement in cognitive function
  Oxidative stress-induced nerve damage: reduced oxidative stress-induced nerve damage
[4]; [7]
  Amount of change in MoCA: Executive function/spatial cognitive function: 0.35 ± 1.0
[4]; Example 2, multivariate analysis adjusted for age, gender, hypertension, diabetes, dyslipidemia, coronary artery disease
  β, resveratrol intake vs MoCA visuospatial cognitive function/executive function change: 0.26
[4]; Example 2, univariate analysis
  β, resveratrol intake vs MoCA visuospatial cognitive function/executive function change: 0.257
[4]; [9]
  Amount of change in MoCA: visuospatial cognitive and executive functions: 0.4±0.9
  Amount of change in total MoCA score: 0.4±2.6
[5]
  Adverse events: no adverse events observed
[6]
  Effect in human Alzheimer's patients: no effect was observed
